Results: patent US6933289B2, “Inhibition of irritating side effects associated with use of a topical ophthalmic medication” (Allergan, Inc., priority 2003, dated 2005)

Tests used:
[1] = Phase-solubility analysis: association constant between bimatoprost and cyclodextrin or cyclodextrin derivative; format: physicochemical; conditions: 1:1 complex with bimatoprost, stirred one week at room temperature
Description: CD represents the associated complex of the two. […] CD], according to equation 2. [formula]
The association constant between the bimatoprost and four cyclodextrin or cyclodextrin derivatives was determined by running phase-solubility analysis. A series of small glass bottles was set up, each fitted with a screw cap and a magnetic stir bar with increasing concentrations of cyclodextrin or cyclodextrin derivative dissolved in a fixed volume (e.g., 10 mL) of aqueous vehicle (e.g., the formulation minus the drug and the cyclodextrin or cyclodextrin derivative). […] Bottles were then capped and the suspensions were stirred for a week at room temperature to ensure equilibrium. Undissolved drug was removed by centrifugation, followed by filtration through a 0.45 μm filter membrane to obtain a clear solution, free of drug in suspension. The concentration of the solubilized drug in each filtrate sample was determined and drug solubility (y-axis) was plotted against the concentration of the cyclodextrin or cyclodextrin derivative (x-axis). […] In principle, S0 is equivalent to the y intercept (b) of the fitted line, however, in most cases it can more accurately be determined by direct measurement of the solubility rather than indirectly from the fit of data.

[2] = 0.02% bimatoprost, cited from earlier work

Molecule | Association Constant (molar association constant for bimatoprost) [1] | Hyperemia ([2]; no cyclodextrin) | Efficacy [2]
OC[C@H]1O[C@@H]2O[C@H]3[C@H](O)[C@@H](O)[C@@H](O[C@H]4[C@H](O)[C@@H](O)[C@@H](O[C@H]5[C@H](O)[C@@H](O)[C@@H](O[C@H]6[C@H](O)[C@@H](O)[C@@H](O[C@H]7[C@H](O)[C@@H](O)[C@@H](O[C@H]8[C@H](O)[C@@H](O)[C@@H](O[C@H]9[C@H](O)[C@@H](O)[C@@H](O[C@H]1[C@H](O)[C@H]2O)O[C@@H]9CO)O[C@@H]8CO)O[C@@H]7CO)O[C@@H]6CO)O[C@@H]5CO)O[C@@H]4CO)O[C@@H]3CO [γ-cyclodextrin] | ≈439 M^−1 |  | 
CCNC(=O)CCC/C=C\C[C@@H]1[C@@H](/C=C/[C@@H](O)CCc2ccccc2)[C@H](O)C[C@@H]1O [bimatoprost] |  | little hyperemia | loses efficacy
2-Hydroxypropyl β-cyclodextrin | ≈1913 M^−1 |  | 
Sulfobutyl ether β-cyclodextrin | ≈1464 M^−1 |  | 
